This is an account of results in patent US20240158391A1, “DERIVATIVES OF 4-(IMIDAZO[1,2-A]PYRIDIN-3-YL)-N-(PYRIDIN-3-YL) PYRIMIDIN-2- AMINE FOR TREATING PROLIFERATIVE DISEASES AND CONDITIONS” (AUCENTRA THERAPEUTICS PTY LTD, priority 2019, published 2024).

The target of one assay is CDK4/CyclinD1 (Homo sapiens, UniProt P11802). The assay can be described thus: ADP Glo kinase assay, CDK4/CyclinD1. Format: biochemical. Conditions: compound at 1 μM, read-out: Residual enzymatic activity (%) at 1 μM, CDK4 D1. In a few lines: (§1)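 10-pt 1:3 dilution series, 10-0.0005 μM, 0.5% DMSO; RT reaction, optimised time; stopped with ADP Glo reagent.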
CDK4/CyclinD1, sequence (P11802 whole entry, species assumed): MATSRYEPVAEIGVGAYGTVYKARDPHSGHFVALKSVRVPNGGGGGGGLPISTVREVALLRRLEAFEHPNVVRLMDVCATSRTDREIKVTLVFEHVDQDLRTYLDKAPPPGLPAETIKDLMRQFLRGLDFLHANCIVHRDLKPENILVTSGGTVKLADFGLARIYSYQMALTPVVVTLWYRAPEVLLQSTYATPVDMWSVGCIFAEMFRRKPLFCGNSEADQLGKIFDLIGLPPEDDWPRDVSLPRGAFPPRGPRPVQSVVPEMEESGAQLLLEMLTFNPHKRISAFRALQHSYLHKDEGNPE
CDK4/CyclinD1, sequence (P24385 whole entry partner, species assumed): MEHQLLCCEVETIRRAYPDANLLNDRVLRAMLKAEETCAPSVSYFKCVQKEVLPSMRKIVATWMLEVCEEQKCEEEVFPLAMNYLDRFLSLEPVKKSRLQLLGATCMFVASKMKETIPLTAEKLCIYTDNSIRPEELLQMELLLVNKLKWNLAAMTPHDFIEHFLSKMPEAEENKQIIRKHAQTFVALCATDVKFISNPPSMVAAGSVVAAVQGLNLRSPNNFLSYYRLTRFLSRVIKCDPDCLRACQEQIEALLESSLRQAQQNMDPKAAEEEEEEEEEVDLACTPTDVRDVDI
On the technique in general: In ADP-Glo the light output rises with the ADP produced.

A further assay has as its target CDK9/CyclinT1 (Homo sapiens, UniProt P50750). The assay can be described thus: ADP Glo kinase assay, CDK9/CyclinT1. Format: biochemical. Particulars: CDK9/CyclinT1; Km ATP; read-out: Enzymatic inhibition, Ki, CDK9 T1. In a few lines:
as §1

The test system of a further assay is MV-4-11. Briefly: Proliferation assay (resazurin, leukemia cell lines), MV-4-11. Particulars: Homo sapiens, MV4-11, read-out: 72 h Growth inhibition GI50, MV-4-11 cells. Format: cell-based. An excerpt: The following compounds were used as comparators.
(The colour change of resazurin is a common sign of viable cells or microbes.)

The target in another assay is CDK2/CyclinA2 (Homo sapiens, UniProt P24941). Briefly: ADP Glo kinase assay, CDK2/CyclinA2. Conditions: for remaining activity at 1 µM: compound at 1 μM, read-out: Residual enzymatic activity (%) at 1 μM, CDK2 A; for Ki: Km ATP, read-out: Enzymatic inhibition, Ki, CDK2 A. Format: biochemical. In a few lines: as §1
The next assay has as its target CDK7/CyclinH/Mat1 (Homo sapiens, UniProt P50613). The assay can be described thus: ADP Glo kinase assay, CDK7/CyclinH/Mat1. Conditions: for remaining activity at 1 µM: compound at 1 μM, read-out: Residual enzymatic activity (%) at 1 μM, CDK7 H; for Ki: Km ATP, read-out: Enzymatic inhibition, Ki, CDK7 H. Format: biochemical. In a few lines: as §1
The target in the next assay is CDK1/CyclinB (Homo sapiens, UniProt P06493). Briefly: ADP Glo kinase assay, CDK1/CyclinB. Format: biochemical. Conditions: compound at 1 μM, read-out: Residual enzymatic activity (%) at 1 μM, CDK1 B. In a few lines:
as §1

For another assay, the target named is T1, FLT3-ITD (Homo sapiens, UniProt P36888).
T1 sequence (P36888 1-993): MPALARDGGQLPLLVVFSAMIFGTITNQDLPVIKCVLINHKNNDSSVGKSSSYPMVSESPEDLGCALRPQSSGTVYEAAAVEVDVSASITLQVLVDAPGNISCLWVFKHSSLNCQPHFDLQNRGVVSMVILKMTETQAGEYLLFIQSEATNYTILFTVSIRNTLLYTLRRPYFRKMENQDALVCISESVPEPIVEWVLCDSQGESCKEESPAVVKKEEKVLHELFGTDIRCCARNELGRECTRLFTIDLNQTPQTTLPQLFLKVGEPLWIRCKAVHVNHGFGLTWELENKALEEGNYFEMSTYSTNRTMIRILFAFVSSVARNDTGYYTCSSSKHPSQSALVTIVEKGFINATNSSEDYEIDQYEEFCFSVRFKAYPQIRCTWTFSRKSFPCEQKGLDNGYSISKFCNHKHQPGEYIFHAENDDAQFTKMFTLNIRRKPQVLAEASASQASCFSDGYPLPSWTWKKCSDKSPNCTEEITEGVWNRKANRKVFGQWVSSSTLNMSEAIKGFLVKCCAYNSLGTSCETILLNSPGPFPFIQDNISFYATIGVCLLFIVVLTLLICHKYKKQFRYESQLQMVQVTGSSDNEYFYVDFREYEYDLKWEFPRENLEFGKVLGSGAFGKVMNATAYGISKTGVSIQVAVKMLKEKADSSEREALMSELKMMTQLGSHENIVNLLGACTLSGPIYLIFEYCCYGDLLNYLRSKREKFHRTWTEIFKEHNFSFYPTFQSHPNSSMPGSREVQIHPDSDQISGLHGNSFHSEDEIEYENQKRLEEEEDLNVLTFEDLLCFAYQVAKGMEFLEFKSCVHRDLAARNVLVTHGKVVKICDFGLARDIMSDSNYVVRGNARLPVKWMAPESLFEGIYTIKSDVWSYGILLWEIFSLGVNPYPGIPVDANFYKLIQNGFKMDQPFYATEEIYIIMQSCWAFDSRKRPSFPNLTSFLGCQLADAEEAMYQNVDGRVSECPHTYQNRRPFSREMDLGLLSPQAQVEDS
Briefly: ADP Glo kinase assay, FLT3-ITD. Format: biochemical. Particulars: Km ATP 100 μM, read-out: Enzymatic inhibition, Ki, FLT3-ITD. In a few lines:
as §1

For a further assay, the target named is CDK6/CyclinD3 (Homo sapiens, UniProt Q00534). Briefly: ADP Glo kinase assay, CDK6/CyclinD3. Format: biochemical. Conditions: for remaining activity at 1 µM: compound at 1 μM, read-out: Residual enzymatic activity (%) at 1 μM, CDK6 D3. In a few lines: as §1
CDK6/CyclinD3, sequence (Q00534 whole entry, species assumed): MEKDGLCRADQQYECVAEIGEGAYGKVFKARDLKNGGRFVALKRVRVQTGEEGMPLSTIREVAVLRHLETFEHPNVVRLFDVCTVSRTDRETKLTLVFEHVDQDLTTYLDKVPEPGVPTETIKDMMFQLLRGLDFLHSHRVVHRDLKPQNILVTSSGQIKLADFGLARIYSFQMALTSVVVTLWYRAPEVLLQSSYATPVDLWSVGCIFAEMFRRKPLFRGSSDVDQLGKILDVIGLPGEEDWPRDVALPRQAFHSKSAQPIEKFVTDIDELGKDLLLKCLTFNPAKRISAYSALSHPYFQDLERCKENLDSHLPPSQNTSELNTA
CDK6/CyclinD3, sequence (P30281 whole entry partner, species assumed): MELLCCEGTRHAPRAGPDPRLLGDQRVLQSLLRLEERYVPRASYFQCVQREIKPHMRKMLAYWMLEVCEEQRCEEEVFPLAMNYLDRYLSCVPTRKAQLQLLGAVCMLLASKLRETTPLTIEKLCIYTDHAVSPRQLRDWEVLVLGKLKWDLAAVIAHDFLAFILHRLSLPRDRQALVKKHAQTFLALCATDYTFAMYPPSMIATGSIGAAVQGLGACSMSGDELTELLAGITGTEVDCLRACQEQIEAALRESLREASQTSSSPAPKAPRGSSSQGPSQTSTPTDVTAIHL

The structures appear in SMILES notation.

CDK7/CyclinH/Mat1, sequence (P50613 whole entry, species assumed): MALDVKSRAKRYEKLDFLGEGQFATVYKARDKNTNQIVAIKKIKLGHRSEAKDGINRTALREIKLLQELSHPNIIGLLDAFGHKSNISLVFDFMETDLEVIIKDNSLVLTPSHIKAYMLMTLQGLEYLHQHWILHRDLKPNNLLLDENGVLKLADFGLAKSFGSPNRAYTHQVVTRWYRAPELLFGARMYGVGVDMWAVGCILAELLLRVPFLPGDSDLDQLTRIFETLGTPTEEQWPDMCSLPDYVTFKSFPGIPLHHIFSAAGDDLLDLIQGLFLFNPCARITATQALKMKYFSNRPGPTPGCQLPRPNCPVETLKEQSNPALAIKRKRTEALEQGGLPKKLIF
CDK7/CyclinH/Mat1, sequence (P51946 whole entry partner, species assumed): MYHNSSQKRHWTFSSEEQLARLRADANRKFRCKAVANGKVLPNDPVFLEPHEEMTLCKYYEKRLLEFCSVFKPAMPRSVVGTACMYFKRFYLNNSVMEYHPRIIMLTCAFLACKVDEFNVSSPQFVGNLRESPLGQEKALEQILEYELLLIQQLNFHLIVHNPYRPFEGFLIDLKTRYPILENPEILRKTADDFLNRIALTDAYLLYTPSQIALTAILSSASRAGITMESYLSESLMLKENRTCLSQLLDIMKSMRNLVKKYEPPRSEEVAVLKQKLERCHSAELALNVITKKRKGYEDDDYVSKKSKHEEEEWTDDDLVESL
CDK7/CyclinH/Mat1, sequence (P51948 whole entry partner, species assumed): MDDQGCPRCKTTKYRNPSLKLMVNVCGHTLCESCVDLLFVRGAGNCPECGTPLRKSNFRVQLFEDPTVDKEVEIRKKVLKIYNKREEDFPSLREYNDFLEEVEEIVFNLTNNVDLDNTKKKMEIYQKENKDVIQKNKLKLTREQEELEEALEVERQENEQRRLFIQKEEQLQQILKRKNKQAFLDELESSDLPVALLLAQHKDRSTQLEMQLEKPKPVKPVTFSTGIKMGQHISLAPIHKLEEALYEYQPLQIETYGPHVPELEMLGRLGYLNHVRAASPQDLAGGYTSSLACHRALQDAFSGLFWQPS
CDK1/CyclinB, sequence (P06493 whole entry, species assumed): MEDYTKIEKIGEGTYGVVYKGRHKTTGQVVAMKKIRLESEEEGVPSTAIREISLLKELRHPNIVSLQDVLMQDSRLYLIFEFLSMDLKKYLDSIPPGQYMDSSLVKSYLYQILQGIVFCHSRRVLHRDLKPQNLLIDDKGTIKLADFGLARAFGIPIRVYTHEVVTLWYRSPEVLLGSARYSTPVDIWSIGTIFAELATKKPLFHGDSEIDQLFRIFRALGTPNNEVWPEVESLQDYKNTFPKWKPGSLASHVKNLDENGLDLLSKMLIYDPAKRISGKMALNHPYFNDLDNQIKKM
CDK1/CyclinB, sequence (P14635 whole entry partner, species assumed): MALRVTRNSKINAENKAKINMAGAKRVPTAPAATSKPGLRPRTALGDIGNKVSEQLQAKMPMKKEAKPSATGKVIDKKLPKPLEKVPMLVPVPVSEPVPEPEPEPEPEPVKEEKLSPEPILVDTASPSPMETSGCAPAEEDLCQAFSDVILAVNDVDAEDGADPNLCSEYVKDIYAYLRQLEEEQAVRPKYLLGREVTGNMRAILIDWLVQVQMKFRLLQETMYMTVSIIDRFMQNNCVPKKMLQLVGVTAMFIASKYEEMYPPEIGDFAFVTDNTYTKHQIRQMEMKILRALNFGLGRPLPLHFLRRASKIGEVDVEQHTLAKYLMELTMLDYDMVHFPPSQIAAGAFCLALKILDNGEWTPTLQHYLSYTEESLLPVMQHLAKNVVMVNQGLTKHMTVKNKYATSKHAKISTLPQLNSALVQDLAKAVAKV
CDK9/CyclinT1, sequence (P50750 whole entry, species assumed): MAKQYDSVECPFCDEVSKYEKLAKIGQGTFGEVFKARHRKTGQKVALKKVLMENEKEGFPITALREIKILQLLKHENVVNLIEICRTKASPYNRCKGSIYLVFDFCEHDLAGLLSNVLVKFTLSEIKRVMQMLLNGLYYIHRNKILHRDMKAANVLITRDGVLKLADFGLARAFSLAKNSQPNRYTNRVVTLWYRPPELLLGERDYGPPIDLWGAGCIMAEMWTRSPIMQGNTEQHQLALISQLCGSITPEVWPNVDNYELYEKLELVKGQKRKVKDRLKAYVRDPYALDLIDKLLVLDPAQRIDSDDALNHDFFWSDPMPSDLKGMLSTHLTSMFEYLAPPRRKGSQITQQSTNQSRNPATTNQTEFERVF
CDK9/CyclinT1, sequence (O60563 whole entry partner, species assumed): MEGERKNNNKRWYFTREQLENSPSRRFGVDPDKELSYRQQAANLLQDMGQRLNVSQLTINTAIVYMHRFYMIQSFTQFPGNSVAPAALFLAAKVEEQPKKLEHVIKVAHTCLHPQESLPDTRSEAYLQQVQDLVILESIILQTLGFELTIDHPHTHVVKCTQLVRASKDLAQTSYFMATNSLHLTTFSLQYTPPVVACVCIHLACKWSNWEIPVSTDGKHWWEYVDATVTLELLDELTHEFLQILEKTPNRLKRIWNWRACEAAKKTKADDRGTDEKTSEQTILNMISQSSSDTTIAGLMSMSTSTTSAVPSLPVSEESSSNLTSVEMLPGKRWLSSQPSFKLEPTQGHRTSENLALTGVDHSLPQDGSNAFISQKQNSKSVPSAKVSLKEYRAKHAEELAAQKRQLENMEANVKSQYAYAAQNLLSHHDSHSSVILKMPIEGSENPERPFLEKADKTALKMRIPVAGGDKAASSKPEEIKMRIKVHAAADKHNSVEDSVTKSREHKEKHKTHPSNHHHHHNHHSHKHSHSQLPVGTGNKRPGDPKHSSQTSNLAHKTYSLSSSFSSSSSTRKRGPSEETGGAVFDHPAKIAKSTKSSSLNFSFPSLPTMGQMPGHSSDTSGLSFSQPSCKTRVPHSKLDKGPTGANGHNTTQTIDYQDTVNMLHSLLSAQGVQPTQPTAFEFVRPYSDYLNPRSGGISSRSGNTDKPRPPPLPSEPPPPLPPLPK

In general, Ki refers to a measure of affinity in units of concentration, obtained from inhibition or displacement. One may read the GI50 as the concentration that inhibits growth by half. `CCS(=O)(=O)N1CCN(c2ccc(Nc3nccc(-c4cnc5ccc(Br)cn45)n3)cn2)CC1` [Compound 59, 4-(6-Bromoimidazo[1,2-a]pyridin-3-yl)-N-(6-(4-(ethylsulfonyl)piperazin-1-yl)pyridin-3-yl)pyrimidin-2-amine]: the remaining activity at 1 µM on CDK4/CyclinD1 is 52%; at CDK2/CyclinA2, 44%; on CDK7/CyclinH/Mat1 it was 88%; at CDK1/CyclinB, 70%; at CDK6/CyclinD3, 49%. For the same molecule, the Ki on CDK9/CyclinT1 came out at 234 nM; on FLT3-ITD, 86 nM. In the assay with MV-4-11, the GI50 turned out to be 32 nM.
`CN(C)c1ccc(Nc2nccc(-c3cnc4ccc(Br)cn34)n2)cn1` [Compound 65, N^5-(4-(6-Bromoimidazo[1,2-a]pyridin-3-yl)pyrimidin-2-yl)-N^2,N^2-dimethylpyridine-2,5-diamine]: the remaining activity at 1 µM amounted to 86% on CDK4/CyclinD1, 39% on CDK2/CyclinA2, 71% on CDK7/CyclinH/Mat1 and 56% on CDK1/CyclinB. Also, the Ki at CDK9/CyclinT1 was 142 nM; on FLT3-ITD it was 24 nM; at CDK6/CyclinD3 (Km ATP, read-out: Enzymatic inhibition, Ki, CDK6 D3), 159 nM. Besides, the GI50 with MV-4-11 stood at 41 nM.
Turning to `O=C1NCCC12CCN(c1ccc(Nc3nccc(-c4cnc5ccc(-c6cnn(C(F)F)c6)cn45)n3)cn1)CC2` [Compound 73, 8-(5-((4-(6-(1-(Difluoromethyl)-1H-pyrazol-4-yl)imidazo[1,2-a]pyridin-3-yl)pyrimidin-2-yl)amino)pyridin-2-yl)-2,8-diazaspiro[4.5]decan-1-one], the remaining activity at 1 µM on CDK4/CyclinD1 was determined as 82%; at CDK2/CyclinA2, 80%; on CDK7/CyclinH/Mat1 it was 83%; at CDK1/CyclinB, 73%; on CDK6/CyclinD3, 97%. In addition, the Ki on CDK9/CyclinT1 was above 500 nM; at FLT3-ITD it was 116 nM. Moreover, the GI50 in the assay with MV-4-11 amounted to 14 nM.
As to `CCCNc1ccc(Nc2nccc(-c3cnc4ccc(Br)cn34)n2)cn1` [Compound 74, N^5-(4-(6-Bromoimidazo[1,2-a]pyridin-3-yl)pyrimidin-2-yl)-N^2-propylpyridine-2,5-diamine], the remaining activity at 1 µM at CDK4/CyclinD1 came to 54%; at CDK2/CyclinA2 it was 41%; at CDK7/CyclinH/Mat1 it was 78%; on CDK1/CyclinB it was 82%; on CDK6/CyclinD3, 86%. Also, the Ki was found to be 102 nM on CDK9/CyclinT1 and 40 nM on FLT3-ITD. Further, the GI50 with MV-4-11 was determined as 20 nM.
As for `CCCNc1ccc(Nc2nccc(-c3cnc4ccc(-c5ccccc5)cn34)n2)cn1` [Compound 75, N^5-(4-(6-Phenylimidazo[1,2-a]pyridin-3-yl)pyrimidin-2-yl)-N^2-propylpyridine-2,5-diamine], the remaining activity at 1 µM was 89% on CDK4/CyclinD1; 100% at CDK2/CyclinA2; 80% on CDK7/CyclinH/Mat1; 89% on CDK1/CyclinB; 93% at CDK6/CyclinD3. The Ki on CDK9/CyclinT1 worked out at 368 nM; at FLT3-ITD, 160 nM. In addition, the GI50 in the assay with MV-4-11 was found to be 78 nM.
`CCCNc1ccc(Nc2nccc(-c3cnc4ccc(-c5cnn(C(F)F)c5)cn34)n2)cn1` [Compound 76, N^5-(4-(6-(1-(Difluoromethyl)-1H-pyrazol-4-yl)imidazo[1,2-a]pyridin-3-yl)pyrimidin-2-yl)-N^2-propylpyridine-2,5-diamine]: the remaining activity at 1 µM stood at 97% on CDK4/CyclinD1; 62% on CDK2/CyclinA2; 57% on CDK7/CyclinH/Mat1; 96% on CDK1/CyclinB; 71% at CDK6/CyclinD3. The values for the Ki on CDK9/CyclinT1 and at FLT3-ITD were 629 nM and 100 nM, respectively. Further, in the assay on MV-4-11, the GI50 turned out to be 39 nM.
Consider `CN1CCN(Cc2ccc(Nc3nccc(-c4cnc5ccc(Br)cn45)n3)cn2)CC1` [Compound 77, 4-(6-Bromoimidazo[1,2-a]pyridin-3-yl)-N-(6-((4-methylpiperazin-1-yl)methyl)pyridin-3-yl)pyrimidin-2-amine], for which the remaining activity at 1 µM came to 52% at CDK4/CyclinD1, 40% on CDK7/CyclinH/Mat1, 74% at CDK1/CyclinB and 48% on CDK6/CyclinD3. In addition, the Ki at CDK9/CyclinT1 was 51 nM; at CDK2/CyclinA2 it was 40 nM; at FLT3-ITD it was 70 nM. In addition, the 50% growth inhibitory concentration (GI50) in the assay on MV-4-11 was 35 nM.
Regarding `CN1CCN(Cc2ccc(Nc3nccc(-c4cnc5ccc(-c6ccccc6)cn45)n3)cn2)CC1` [Compound 78, N-(6-((4-Methylpiperazin-1-yl)methyl)pyridin-3-yl)-4-(6-phenylimidazo[1,2-a]pyridin-3-yl)pyrimidin-2-amine], the remaining activity at 1 µM stood at 95% at CDK4/CyclinD1; 46% on CDK2/CyclinA2; 38% at CDK7/CyclinH/Mat1; 99% at CDK1/CyclinB; 64% on CDK6/CyclinD3. For the same molecule, the results for the Ki on CDK9/CyclinT1 and on FLT3-ITD were 65 nM and 90 nM, respectively. Besides, the GI50 in the assay on MV-4-11 was 105 nM.
With `CCN1CCN(Cc2ccc(Nc3nccc(-c4cnc5ccc(Br)cn45)n3)cn2)CC1` [Compound 79, 4-(6-Bromoimidazo[1,2-a]pyridin-3-yl)-N-(6-((4-ethylpiperazin-1-yl)methyl)pyridin-3-yl)pyrimidin-2-amine], the remaining activity at 1 µM was found to be 48% on CDK4/CyclinD1, 70% on CDK1/CyclinB and 27% at CDK6/CyclinD3. Also, the Ki at CDK9/CyclinT1 was found to be 57 nM; at CDK2/CyclinA2, 42 nM; on CDK7/CyclinH/Mat1 it was 168 nM; at FLT3-ITD, 70 nM. Further, in the assay with MV-4-11, the GI50 stood at 38 nM.
As to `CCN1CCN(Cc2ccc(Nc3nccc(-c4cnc5ccc(-c6ccccc6)cn45)n3)cn2)CC1` [Compound 80, N-(6-((4-Ethylpiperazin-1-yl)methyl)pyridin-3-yl)-4-(6-phenylimidazo[1,2-a]pyridin-3-yl)pyrimidin-2-amine], the remaining activity at 1 µM at CDK4/CyclinD1 stood at 81%; at CDK2/CyclinA2, 37%; on CDK1/CyclinB it was 92%; at CDK6/CyclinD3, 59%. In addition, the Ki on CDK9/CyclinT1 stood at 60 nM; on CDK7/CyclinH/Mat1 it was 222 nM; on FLT3-ITD, 60 nM. Besides, the GI50 in the assay on MV-4-11 came to 102 nM.
On to `CN(C)C1CCN(Cc2ccc(Nc3nccc(-c4cnc5ccc(Br)cn45)n3)cn2)CC1` [Compound 81, 4-(6-Bromoimidazo[1,2-a]pyridin-3-yl)-N-(6-((4-(dimethylamino)piperidin-1-yl)methyl)pyridin-3-yl)pyrimidin-2-amine], for which the remaining activity at 1 µM on CDK4/CyclinD1 came to 47%; on CDK1/CyclinB it was 84%; at CDK6/CyclinD3 it was 22%. For the same molecule, the Ki was found to be 143 nM at CDK9/CyclinT1, 41 nM at CDK2/CyclinA2, 205 nM at CDK7/CyclinH/Mat1 and 70 nM on FLT3-ITD. Besides, the GI50 in the assay on MV-4-11 was determined as 98 nM.
In the case of `COC(=O)c1ccc(Nc2nccc(-c3cnc4ccc(Br)cn34)n2)cn1` [Compound 82, Methyl 5-((4-(6-bromoimidazo[1,2-a]pyridin-3-yl)pyrimidin-2-yl)amino)picolinate], the remaining activity at 1 µM at CDK4/CyclinD1 was determined as 94%; on CDK7/CyclinH/Mat1, 93%; at CDK1/CyclinB, 90%; on CDK6/CyclinD3 it was 99%. Moreover, the values for the Ki at CDK9/CyclinT1, at CDK2/CyclinA2 and at FLT3-ITD were 163 nM, 52 nM and 180 nM, respectively. The GI50 in the assay on MV-4-11 was 262 nM.
